Laboratory results as given in patent publication US6476004B1, “Pharmaceutical composition” (Mitsubishi Pharma Corporation, priority 1996, dated 2002).

Experiment: Behaviour of the aqueous solution of the present compound
Assay type: physicochemical
Procedure: When 2-amino-2-[2-(4-octylphenyl)ethyl]propane-1,3-diol or a pharmaceutical acceptable acid addition salt (particularly hydrochloride) is made an aqueous solution, the solution is observed foaming and shown hemolysis and local irritation at 0.01-20% by weight. When the present compound is made the aqueous solution at a higher concentration than 0.1% by weight, the present compound is dissolved by micellization. On the other hand, in the aqueous solution at a lower concentration than 0.05% by weight, the present compound is dissolved as a solution without micellization. […] The present invention characterizes that, by adding a cyclodextrin to the said aqueous solution, the problems such as foaming, hemolysis and local irritation, as well as prevention of crystalline deposits based on micellization, are settled at the same time.

CCCCCCCCc1ccc(CCC(N)(CO)CO)cc1.Cl [present compound, 2-amino-2-[2-(4-octylphenyl)ethyl]propane-1,3-diol hydrochloride]
concentration of aqueous solution at which crystalline deposits are found: 0.05-0.1 % by weight | concentration of aqueous solution at which foaming, hemolysis and local irritation are shown: 0.01-20 % by weight | concentration of aqueous solution at which the compound is dissolved by micellization: > 0.1 % by weight | concentration of aqueous solution at which the compound is dissolved without micellization: < 0.05 % by weight
